Source: PMC9283466, “In silico identification of two peptides with antibacterial activity against multidrug-resistant Staphylococcus aureus” (NPJ Biofilms and Microbiomes, 2022)
Converted amounts (≈) assume the structure as drawn.

Assays:
S. aureus RN4220 = assay: MIC, broth microdilution; format: cell-based, Staphylococcus aureus; conditions: Staphylococcus aureus, sensitive, read-out: MIC
Method: (§1) To determine the antimicrobial activity of the new antimicrobial peptides, HG2 and HG4, their minimum inhibitory concentrations (MICs) were determined by broth microdilution method[51] in cation adjusted Mueller Hinton broth (MHB) following the International Organisation for Standardisation (ISO) 20776-1 standard for MIC testing using a final bacterial inoculum of 5 × 10^5 CFU/ml[52]. […] The peptides dissolved in sterile distilled water were added to bacteria culture and incubated overnight at appropriate conditions. The MICs of the peptides and comparator antibiotics were recorded after 18–24 h. The minimum bactericidal concentrations (MBCs) were also determined and were taken as the lowest concentration of the antimicrobial that prevented the growth of bacterial cells after the subculture of cells (from MIC treatment) onto antibiotic-free media.

K. pneumoniae 518842 = assay: microbe, parasite or virus in culture; format: cell-based, Klebsiella pneumoniae; conditions: Klebsiella pneumoniae, 518842
Method: as §1

K. pneumoniae 526903 = assay: microbe, parasite or virus in culture; format: cell-based, Klebsiella pneumoniae; conditions: Klebsiella pneumoniae; K. pneumoniae 526903; sensitive; read-out: MIC
Method: as §1

[1] = test system: K. pneumoniae ATCC 700603; assay: microbe, parasite or virus in culture; format: cell-based, Klebsiella pneumoniae; conditions: Klebsiella pneumoniae, ATCC700603; K. pneumoniae ATCC 700603; SHV-18; read-out: MIC
Method: as §1

K. pneumoniae NCTC 13442 = assay: microbe, parasite or virus in culture; format: cell-based, Klebsiella pneumoniae; conditions: Klebsiella pneumoniae, NCTC13442; K. pneumoniae NCTC 13442; OXA-48; read-out: MIC
Method: as §1

[2] = test system: A. baumannii (IMI, MER resistant; strain ID not given); assay: microbe, parasite or virus in culture; format: cell-based, Acinetobacter baumannii; conditions: Acinetobacter baumannii, A. baumannii, no strain ID, MER, read-out: MIC
Method: as §1

A. baumannii 515722 = assay: microbe, parasite or virus in culture; format: cell-based, Acinetobacter baumannii; conditions: Acinetobacter baumannii; A. baumannii 515722; sensitive; read-out: MIC
Method: as §1

A. baumannii 515785 = assay: microbe, parasite or virus in culture; format: cell-based, Acinetobacter baumannii; conditions: Acinetobacter baumannii, 515785
Method: as §1

A. baumannii 515908 = assay: microbe, parasite or virus in culture; format: cell-based, Acinetobacter baumannii; conditions: Acinetobacter baumannii; A. baumannii 515908; sensitive; read-out: MIC
Method: as §1

B. cereus = assay: microbe, parasite or virus in culture; format: cell-based, Bacillus cereus; conditions: Bacillus cereus; B. cereus; read-out: MIC
Method: as §1

[3] = test system: P. aeruginosa (CF) AMT0060; assay: microbe, parasite or virus in culture; format: cell-based, Pseudomonas aeruginosa; conditions: Pseudomonas aeruginosa; P. aeruginosa (CF) AMT0060; read-out: MIC
Method: as §1

P. aeruginosa (CF) C3719 = assay: microbe, parasite or virus in culture; format: cell-based, Pseudomonas aeruginosa; conditions: Pseudomonas aeruginosa; P. aeruginosa (CF) C3719; read-out: MIC
Method: as §1

[4] = test system: P. aeruginosa (CF) LES400; assay: microbe, parasite or virus in culture; format: cell-based, Pseudomonas aeruginosa; conditions: Pseudomonas aeruginosa; P. aeruginosa (CF) LES400; read-out: MIC
Method: as §1

P. aeruginosa PA01 = assay: microbe, parasite or virus in culture; format: cell-based, Pseudomonas aeruginosa; conditions: Pseudomonas aeruginosa; P. aeruginosa PA01; read-out: MIC
Method: as §1

P. aeruginosa = assay: microbe, parasite or virus in culture; format: cell-based, Pseudomonas aeruginosa; conditions: Pseudomonas aeruginosa; P. aeruginosa; Supplementary Table 5; read-out: Minimum inhibitory Concentrations MICs
Method: as §1

Sal. typhimurium SL1344 = assay: microbe, parasite or virus in culture; format: cell-based, Salmonella enterica serovar Typhimurium; conditions: Salmonella enterica; Sal. typhimurium SL1344; read-out: MIC
Method: as §1

Sal. typhimurium = assay: microbe, parasite or virus in culture; format: cell-based, Salmonella enterica serovar Typhimurium; conditions: Salmonella enterica; Sal. typhimurium; Supplementary Table 5; read-out: Minimum inhibitory Concentrations MICs
Method: as §1

E. coli K12 = assay: microbe, parasite or virus in culture; format: cell-based, Escherichia coli; conditions: Escherichia coli; E. coli K12; read-out: MIC
Method: as §1

E. coli = assay: microbe, parasite or virus in culture; format: cell-based, Escherichia coli; conditions: Escherichia coli, read-out: Minimum inhibitory Concentrations MICs
Method: as §1

EMRA-15 = assay: microbe, parasite or virus in culture; format: cell-based, Staphylococcus aureus; conditions: Staphylococcus aureus; EMRA-15; Supplementary Table 5; read-out: Minimum inhibitory Concentrations MICs
Method: as §1

S. aureus EMRSA-15 = assay: microbe, parasite or virus in culture; format: cell-based, Staphylococcus aureus; conditions: Staphylococcus aureus; S. aureus EMRSA-15; resistances MRSA, Cip; read-out: MIC
Method: as §1

S. aureus = assay: microbe, parasite or virus in culture; format: cell-based, Staphylococcus aureus; conditions: Staphylococcus aureus, read-out: Minimum inhibitory Concentrations MICs
Method: as §1

Ent. faecalis JH2-2 = assay: microbe, parasite or virus in culture; format: cell-based, Enterococcus faecalis; conditions: Enterococcus faecalis, JH22; Ent. faecalis JH2-2; read-out: MIC
Method: as §1

Ent. faecalis = assay: microbe, parasite or virus in culture; format: cell-based, Enterococcus faecalis; conditions: Enterococcus faecalis; Ent. faecalis; Supplementary Table 5; read-out: Minimum inhibitory Concentrations MICs
Method: as §1

[5] = test system: L. monocytogenes NCTC 11994; assay: microbe, parasite or virus in culture; format: cell-based, Listeria monocytogenes; conditions: Listeria monocytogenes, NCTC11994; L. monocytogenes NCTC 11994; read-out: MIC
Method: as §1

List. monocytogenes = assay: microbe, parasite or virus in culture; format: cell-based, Listeria monocytogenes; conditions: Listeria monocytogenes; List. monocytogenes; Supplementary Table 5; read-out: Minimum inhibitory Concentrations MICs
Method: as §1

## O=C(O)c1cn(C2CC2)c2cc(N3CCNCC3)c(F)cc2c1=O [Cip, ciprofloxacin, reference compound]
S. aureus RN4220
  MIC: > 256 µg/mL
K. pneumoniae 518842
  MIC: > 128 µg/mL
K. pneumoniae 526903
  MIC: 0.03 µg/mL (≈ 0.0905 µM)
[1]
  MIC: 0.25 µg/mL (≈ 0.754 µM)
K. pneumoniae NCTC 13442
  MIC: 64 µg/mL (≈ 193 µM)
[2]
  MIC: 16 µg/mL (≈ 48.3 µM)
A. baumannii 515722
  MIC: 16 µg/mL (≈ 48.3 µM)
A. baumannii 515785
  MIC: > 128 µg/mL
A. baumannii 515908
  MIC: 16 µg/mL (≈ 48.3 µM)
B. cereus
  MIC: 0.015 µg/mL (≈ 0.0453 µM)
[3]
  MIC: 0.12 µg/mL (≈ 0.362 µM)
P. aeruginosa (CF) C3719
  MIC: 4 µg/mL (≈ 12.1 µM)
[4]
  MIC: 4 µg/mL (≈ 12.1 µM)
P. aeruginosa PA01
  MIC: 0.5 µg/mL (≈ 1.51 µM)
P. aeruginosa
  MIC: 0.49 µg/mL (≈ 1.48 µM)
Sal. typhimurium SL1344
  MIC: 0.12 µg/mL (≈ 0.362 µM)
Sal. typhimurium
  MIC: 0.12 µg/mL (≈ 0.362 µM)
E. coli K12
  MIC: 0.06 µg/mL (≈ 0.181 µM)
E. coli
  MIC: 0.06 µg/mL (≈ 0.181 µM)
EMRA-15
  MIC: > 250 µg/mL
S. aureus EMRSA-15
  MIC: > 256 µg/mL
S. aureus
  MIC: > 250 µg/mL
Ent. faecalis JH2-2
  MIC: 64 µg/mL (≈ 193 µM)
Ent. faecalis
  MIC: 62.5 µg/mL (≈ 189 µM)
[5]
  MIC: 64 µg/mL (≈ 193 µM)
List. monocytogenes
  MIC: 62.5 µg/mL (≈ 189 µM)
